Assay results taken from PubChem BioAssay AID1963838 (Molecular Pharmacology Branch, DTP, NCI, 2024).
pIC50: −log10 of the molar value.

Tested on: 855422-203-R-J1-PDC complex spheroid viability
Experiment: Anticancer human tumor 855422-203-R-J1-PDC patient-derived bladder carcinoma cell line growth inhibition [POLQ]
Conditions: for pIC50: curve of first compound; for viability, T/C: stronger effect = lower value
In short: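 Three-cell-type spheroids modelling solid tumor plus stroma served as the readout system; POL inhibitors were tested individually and in combination, concentration ranges set by clinical Cmax where known.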

[1] = second compound 0.0316 µM, first compound 0.0316 µM
[2] = second compound 0.0316 µM, first compound 0.1 µM
[3] = second compound 0.0316 µM, first compound 0.316 µM
[4] = second compound 0.0316 µM, first compound 1 µM
[5] = second compound 0.0316 µM, first compound 3.16 µM
[6] = second compound 0.0316 µM, first compound 10 µM
[7] = second compound 0.1 µM, first compound 0.0316 µM
[8] = second compound 0.1 µM, first compound 0.1 µM
[9] = second compound 0.1 µM, first compound 0.316 µM
[10] = second compound 0.1 µM, first compound 1 µM
[11] = second compound 0.1 µM, first compound 3.16 µM
[12] = second compound 0.1 µM, first compound 10 µM
[13] = second compound 0.316 µM, first compound 0.0316 µM
[14] = second compound 0.316 µM, first compound 0.1 µM
[15] = second compound 0.316 µM, first compound 0.316 µM
[16] = second compound 0.316 µM, first compound 1 µM
[17] = second compound 0.316 µM, first compound 3.16 µM
[18] = second compound 0.316 µM, first compound 10 µM
[19] = second compound 1 µM, first compound 0.0316 µM
[20] = second compound 1 µM, first compound 0.1 µM
[21] = second compound 1 µM, first compound 0.316 µM
[22] = second compound 1 µM, first compound 1 µM
[23] = second compound 1 µM, first compound 3.16 µM
[24] = second compound 1 µM, first compound 10 µM
[25] = second compound 3.16 µM, first compound 0.0316 µM
[26] = second compound 3.16 µM, first compound 0.1 µM
[27] = second compound 3.16 µM, first compound 0.316 µM
[28] = second compound 3.16 µM, first compound 1 µM
[29] = second compound 3.16 µM, first compound 3.16 µM
[30] = second compound 3.16 µM, first compound 10 µM
[31] = second compound 10 µM, first compound 0.0316 µM
[32] = second compound 10 µM, first compound 0.1 µM
[33] = second compound 10 µM, first compound 0.316 µM
[34] = second compound 10 µM, first compound 1 µM
[35] = second compound 10 µM, first compound 3.16 µM
[36] = second compound 10 µM, first compound 10 µM
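Note: spheroids exposed to compounds for seven days before readout.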

For `C#Cc1c(F)ccc2cc(O)cc(-c3ncc4c(N5CC6CCC(C5)N6)nc(OCC56CCCN5CC(F)C6)nc4c3F)c12` (centres undefined) + COC1C(OC(N)=O)C(O)C(Oc2ccc3c(O)c(NC(=O)c4ccc(O)c(CC=C(C)C)c4)c(=O)oc3c2C)OC1(C)C, the pIC50 (second compound 0.0316 µM) was < 5.00, the pIC50 (second compound 0.1 µM) was < 5.00 and the pIC50 (second compound 0.316 µM) was < 5.00. The pIC50 (second compound 1 µM) was < 5.00, the pIC50 (second compound 3.16 µM) was < 5.00 and the pIC50 (second compound 10 µM) was < 5.00. For the same molecule, the viability, T/C [1] was 102%, the viability, T/C [2] was 105% and the viability, T/C [3] was 96.1%. For the same molecule, the viability, T/C [4] was 109%, the viability, T/C [5] was 123% and the viability, T/C [6] was 120%. For the same molecule, the viability, T/C [7] was 103%, the viability, T/C [8] was 114% and the viability, T/C [9] was 98.4%. The viability, T/C [10] was 108%, the viability, T/C [11] was 102% and the viability, T/C [12] was 108%. For the same molecule, the viability, T/C [13] was 108%, the viability, T/C [14] was 103% and the viability, T/C [15] was 122%. For the same molecule, the viability, T/C [16] was 115%, the viability, T/C [17] was 114% and the viability, T/C [18] was 117%. It also gave a viability, T/C [19] of 103%, a viability, T/C [20] of 97.3% and a viability, T/C [21] of 117%. For the same molecule, the viability, T/C [22] was 115%, the viability, T/C [23] was 120% and the viability, T/C [24] was 111%. The viability, T/C [25] was 107%, the viability, T/C [26] was 109% and the viability, T/C [27] was 123%. It also gave a viability, T/C [28] of 111%, a viability, T/C [29] of 96.5% and a viability, T/C [30] of 99.2%. The viability, T/C [31] was 102%, the viability, T/C [32] was 104% and the viability, T/C [33] was 108%. The viability, T/C [34] was 117%, the viability, T/C [35] was 112% and the viability, T/C [36] was 115%.

In the case of `CNCc1ccc(-c2[nH]c3cc(F)cc4c3c2CCNC4=O)cc1` + COC1C(OC(N)=O)C(O)C(Oc2ccc3c(O)c(NC(=O)c4ccc(O)c(CC=C(C)C)c4)c(=O)oc3c2C)OC1(C)C, the pIC50 (second compound 0.0316 µM) was < 5.00, the pIC50 (second compound 0.1 µM) was < 5.00 and the pIC50 (second compound 0.316 µM) was < 5.00. For the same molecule, the pIC50 (second compound 1 µM) was < 5.00, the pIC50 (second compound 3.16 µM) was < 5.00 and the pIC50 (second compound 10 µM) was < 5.00. For the same molecule, the viability, T/C [1] was 93.5%, the viability, T/C [2] was 104% and the viability, T/C [3] was 125%. The viability, T/C [4] was 106%, the viability, T/C [5] was 107% and the viability, T/C [6] was 105%. It also gave a viability, T/C [7] of 110%, a viability, T/C [8] of 108% and a viability, T/C [9] of 98%. For the same molecule, the viability, T/C [10] was 109%, the viability, T/C [11] was 100% and the viability, T/C [12] was 110%. It also gave a viability, T/C [13] of 91.3%, a viability, T/C [14] of 97.8% and a viability, T/C [15] of 99.5%. It also gave a viability, T/C [16] of 104%, a viability, T/C [17] of 105% and a viability, T/C [18] of 118%. The viability, T/C [19] was 104%, the viability, T/C [20] was 107% and the viability, T/C [21] was 110%. The viability, T/C [22] was 107%, the viability, T/C [23] was 117% and the viability, T/C [24] was 104%. For the same molecule, the viability, T/C [25] was 106%, the viability, T/C [26] was 92% and the viability, T/C [27] was 112%. It also gave a viability, T/C [28] of 109%, a viability, T/C [29] of 104% and a viability, T/C [30] of 109%. The viability, T/C [31] was 110%, the viability, T/C [32] was 101% and the viability, T/C [33] was 111%. The viability, T/C [34] was 106%, the viability, T/C [35] was 93.2% and the viability, T/C [36] was 97.4%.
